# According to ChEMBL document CHEMBL1155015, “Synthesis and cytotoxic activities of usnic acid derivatives” (Bioorg Med Chem, 2008):
# Experiments:
# L1210 [1] = experiment: Cytotoxicity against mouse L1210 ATCC CCL 219 cells after 48 hrs by MTT assay; assay type: functional, cell-based; conditions: L1210, 48 h
# CHO [2] = experiment: Cytotoxicity against CHO cells after 48 hrs by MTT assay; assay type: cell-based; conditions: Cricetulus griseus
# MCF7 = experiment: Cytotoxicity against human MCF7 ATCC HTB 22 cells after 72 hrs by MTT assay; assay type: functional, cell-based; conditions: MCF7, 72 h
# K562 = experiment: Cytotoxicity against human K562 ATCC CCL 243 cells after 72 hrs by MTT assay; assay type: functional, cell-based; conditions: K562, 72 h
# U-251 = experiment: Cytotoxicity against human U251 RCB 0641 cells after 72 hrs by MTT assay; assay type: functional, cell-based; conditions: U-251, 72 h
# CHO [3] = experiment: Cytotoxicity against polyamine transport-deficient mutant CHO cells after 48 hrs by MTT assay; assay type: ADME, cell-based; conditions: Cricetulus griseus
# [4] = Cytotoxicity against mouse 3LL CRL 1642 cells after 48 hrs by MTT assay; assay type: functional, cell-based
# DU-145 = experiment: Cytotoxicity against human DU145 ATCC HTB 81 cells after 72 hrs by MTT assay; assay type: functional, cell-based; conditions: DU-145, 72 h
# L1210 [5] = experiment: Induction of apoptosis in mouse L1210 ATCC CCL 219 cells assessed as fragmented cell nuclei at 3 uM after 24 hrs by Hoechst 33342 staining; assay type: functional
# L1210 [6] = experiment: Induction of apoptosis in mouse L1210 ATCC CCL 219 cells assessed as fragmented cell nuclei at 3 uM after 48 hrs by Hoechst 33342 staining; assay type: functional
# L1210 [7] = experiment: Induction of apoptosis in mouse L1210 ATCC CCL 219 cells assessed as fragmented cell nuclei at 4.5 uM after 24 hrs by Hoechst 33342 staining; assay type: functional
# L1210 [8] = experiment: Induction of apoptosis in mouse L1210 ATCC CCL 219 cells assessed as fragmented cell nuclei at 4.5 uM after 48 hrs by Hoechst 33342 staining; assay type: functional
# L1210 [9] = experiment: Induction of apoptosis in mouse L1210 ATCC CCL 219 cells assessed as fragmented cell nuclei at 6 uM after 24 hrs by Hoechst 33342 staining; assay type: functional
# L1210 [10] = experiment: Induction of apoptosis in mouse L1210 ATCC CCL 219 cells assessed as fragmented cell nuclei at 6 uM after 48 hrs by Hoechst 33342 staining; assay type: functional
# L1210 [11] = experiment: Induction of apoptosis in mouse L1210 ATCC CCL 219 cells assessed as increase in caspase 3 activity at 3 uM after 48 hrs relative to control; assay type: functional
# L1210 [12] = experiment: Induction of apoptosis in mouse L1210 ATCC CCL 219 cells assessed as increase in caspase 3 activity at 4.5 uM after 48 hrs relative to control; assay type: functional
# L1210 [13] = experiment: Induction of apoptosis in mouse L1210 ATCC CCL 219 cells assessed as increase in caspase 3 activity at 6 uM after 48 hrs relative to control; assay type: functional
# L1210 [14] = experiment: Induction of apoptosis in mouse L1210 ATCC CCL 219 cells assessed as fragmented cell nuclei at 17 uM after 24 hrs by Hoechst 33342 staining; assay type: functional
# L1210 [15] = experiment: Induction of apoptosis in mouse L1210 ATCC CCL 219 cells assessed as fragmented cell nuclei at 17 uM after 48 hrs by Hoechst 33342 staining; assay type: functional
# L1210 [16] = experiment: Induction of apoptosis in mouse L1210 ATCC CCL 219 cells assessed as fragmented cell nuclei at 26 uM after 24 hrs by Hoechst 33342 staining; assay type: functional
# L1210 [17] = experiment: Induction of apoptosis in mouse L1210 ATCC CCL 219 cells assessed as fragmented cell nuclei at 26 uM after 48 hrs by Hoechst 33342 staining; assay type: functional
# L1210 [18] = experiment: Induction of apoptosis in mouse L1210 ATCC CCL 219 cells assessed as fragmented cell nuclei at 35 uM after 24 hrs by Hoechst 33342 staining; assay type: functional
# L1210 [19] = experiment: Induction of apoptosis in mouse L1210 ATCC CCL 219 cells assessed as fragmented cell nuclei at 35 uM after 48 hrs by Hoechst 33342 staining; assay type: functional
# L1210 [20] = experiment: Induction of apoptosis in mouse L1210 ATCC CCL 219 cells assessed as increase in caspase 3 activity at 17 uM after 48 hrs relative to control; assay type: functional
# L1210 [21] = experiment: Induction of apoptosis in mouse L1210 ATCC CCL 219 cells assessed as increase in caspase 3 activity at 26 uM after 48 hrs relative to control; assay type: functional
# L1210 [22] = experiment: Induction of apoptosis in mouse L1210 ATCC CCL 219 cells assessed as increase in caspase 3 activity at 35 uM after 48 hrs relative to control; assay type: functional
# L1210 [23] = experiment: Induction of apoptosis in mouse L1210 ATCC CCL 219 cells assessed as fragmented cell nuclei at 1.7 uM after 24 hrs by Hoechst 33342 staining; assay type: functional
# L1210 [24] = experiment: Induction of apoptosis in mouse L1210 ATCC CCL 219 cells assessed as fragmented cell nuclei at 1.7 uM after 48 hrs by Hoechst 33342 staining; assay type: functional
# L1210 [25] = experiment: Induction of apoptosis in mouse L1210 ATCC CCL 219 cells assessed as increase in caspase 3 activity at 1.7 uM after 48 hrs relative to control; assay type: functional
Structure (SMILES),IC50 (L1210 [1]) [µM],IC50 (CHO [2]) [µM],IC50 (MCF7) [µM],IC50 (K562) [µM],IC50 (U-251) [µM],IC50 (CHO [3]) [µM],further results
NCCCCCCCCN,> 100,> 100,,,,,
CCOC(=O)[C@H](CC(C)C)N/C(C)=C1\C(=O)C=C2Oc3c(C(C)=O)c(O)c(C)c(O)c3[C@@]2(C)C1=O,48.9,,> 100,60.7,> 100,,
CCOC(=O)[C@H](Cc1ccccc1)N/C(C)=C1\C(=O)C=C2Oc3c(C(C)=O)c(O)c(C)c(O)c3[C@@]2(C)C1=O,74.4,,> 100,> 100,> 100,,
CC(=O)c1c(O)c(C)c(O)c2c1OC1=CC(=O)/C(=C(/C)NCCCCN)C(=O)[C@@]12C,12,10.7,,,,12,
CC(=O)c1c(O)c(C)c(O)c2c1OC1=CC(=O)/C(=C(/C)NCCCNCCCCNCCCN)C(=O)[C@@]12C,15.3,48,11.2,,4.4,59,
CC(=O)c1c(O)c(C)c(O)c2c1OC1=CC(=O)/C(=C(/C)NCCCCO)C(=O)[C@@]12C,19.9,19.5,,,,,
CC(=O)c1c(O)c(C)c(O)c2c1OC1=CC(=O)/C(=C(/C)NCCCNCCCCN)C(=O)[C@@]12C,8.4,29.3,9.9,,12.5,28,
CC[C@H](C)[C@H](N/C(C)=C1\C(=O)C=C2Oc3c(C(C)=O)c(O)c(C)c(O)c3[C@@]2(C)C1=O)C(=O)O,17.4,,> 100,56.7,,,
CCCCCCCCCN/C(C)=C1\C(=O)C=C2Oc3c(C(C)=O)c(O)c(C)c(O)c3[C@@]2(C)C1=O,> 500,,,,,,
CC(=O)c1c(O)c(C)c(O)c2c1OC1=CC(=O)/C(=C(/C)NCCCCCCCCN)C(=O)[C@@]12C,2.7,3.5,5.8,7.2,8.2,5,IC50 [4]: 8.2 µM; IC50 (DU-145): 14 µM; Activity (L1210 [5]): 37%; Activity (L1210 [6]): 37%; Activity (L1210 [7]): 38%; Activity (L1210 [8]): 42%; Activity (L1210 [9]): 35%; Activity (L1210 [10]): 48%; Activity (L1210 [11]): 1.4; Activity (L1210 [12]): 1.7; Activity (L1210 [13]): 1.7
"CC(=O)C1=C(O)C=C2Oc3c(C(C)=O)c(O)c(C)c(O)c3C2(C)C1=O (single isomer, unassigned) [(-)-USNIC ACID]",17.4,,51.7,21.8,19.7,,IC50 [4]: 35.1 µM; IC50 (DU-145): 45.9 µM
CC(=O)C1=C(O)C=C2Oc3c(C(C)=O)c(O)c(C)c(O)c3[C@@]2(C)C1=O [(+)-USNIC ACID],26.4,31.3,105,52.8,19.5,30,IC50 [4]: 23 µM; IC50 (DU-145): 57.4 µM; Activity (L1210 [14]): 30%; Activity (L1210 [15]): 33%; Activity (L1210 [16]): 32%; Activity (L1210 [17]): 38%; Activity (L1210 [18]): 35%; Activity (L1210 [19]): 42%; Activity (L1210 [20]): 3.4; Activity (L1210 [21]): 7.4; Activity (L1210 [22]): 21.9
COc1cc([C@@H]2c3cc4c(cc3[C@@H](O[C@@H]3O[C@@H]5CO[C@@H](C)O[C@H]5[C@H](O)[C@H]3O)[C@H]3COC(=O)[C@H]23)OCO4)cc(OC)c1O [ETOPOSIDE],0.5,,,4.9,0.5,,IC50 [4]: 4 µM; IC50 (DU-145): 1.5 µM; Activity (L1210 [23]): 47%; Activity (L1210 [24]): 53%; Activity (L1210 [25]): 19.5
NCCCCN [PUTRESCINE],> 100,> 100,,,,> 100,
NCCCCNCCCN [SPERMIDINE],> 100,> 100,,,,> 100,
NCCCNCCCCNCCCN [SPERMINE],54.5,> 100,,,,> 100,
